Source: patent US9580426B2, “Compounds that expand hematopoietic stem cells” (Novartis AG, priority 2008, dated 2017)

Assays:
Format in all cases: cell-based, human
[1] = test system: mPB CD34+ cells and CB CD34+ cells; experiment: Colony-Forming Units in Culture (CFU-C) Assay
Procedure: Colony-Forming Units in Culture (CFU-C) Assay: Mononuclear cells at 1000 per mL for cord blood 5 week and mPB 3 week culture and 100 cells per mL for C δ 3 week and mPB 1 week culture were added to MethoCult SF H4436, serum-free methylcellulose medium containing methylcellulose in Iscove's MDM, bovine serum albumin, 2-mercaptoethanol, L-glutamine, human transferring (iron saturated), recombinant human insulin, and recombinant human cytokines: stem cell factor, GM-CSF, IL-3, IL-6, G-CSF, and erythropoietin (StemCell Technologies). The MethoCult is supplemented with the following human recombinant cytokines: thrombopoietin, and Flt-3 ligand (R&D Systems), each at a final concentration of 50 ng/mL. After stirring, the mixture is divided into three 35-mm dishes. The dishes are incubated for 14 days at 37° C. in a humidified atmosphere of 5% CO2 in air. At the end of the incubation period, myeloid and erythroid colonies are counted under an inverted microscope at 40× magnification. CFU-C content of the expansion culture is calculated as follows: number of scored colonies per three dishes×total mononuclear cell number/input cell number. Up to one week, total mononuclear cells are determined by multiplying the number of cells per milliliter by the culture volume. From week 1 and on, the number of passages is also taken into account. Cultures treated with 4-(2-(2-(benzo[b]thiophen-3-yl)-9-isopropyl-9H-purin-6-ylamino)ethyl)phenol (compound 1, table 1; example 1) at a concentration of 1 micromolar, generated a greater than 10-fold increase in the number of colony forming cells after 21 days of culture of mPB CD34+ cells compared to vehicle. […] Cells treated with a 4-(2-(2-(benzo[b]thiophen-3-yl)-9-isopropyl-9H-purin-6-ylamino)ethyl)phenol (compound 1, table 1; example 1) generated more mixed colonies associated with a >10-fold increase in erythrocyte colonies, a >10-fold increase in granulocyte/macrophage colonies, and a >10-fold increase in macrophage colonies.

CB CD34+ cells = experiment: Determination of CD34+ cell subsets by FACS
Procedure: Surface Antigen Analysis: The cells are washed with staining media (Hanks balanced salt solution containing FBS (2%) and EDTA (2 mM)) and stained (at 4° C. for 30 minutes) with indicated primary conjugated antibodies. The cells are washed in the previously described buffer and analyzed using a BD LSR II flow cytometer (Becton Dickinson, San Jose, Calif.). The cells are passed at a rate of up to 1000 cells/second using 488-nm argon and 633-nm HeNe laser beams as the light source for excitation. Emission of 10^4 cells is measured using logarithmic amplification and analyzed using FlowJo software (TreeStar Inc. Ashland, Oreg.). Cells stained with primary conjugated isotype control antibodies are used to determine background fluorescence.
Determination of CD34^+ cell subsets: The percentages of CD34^+ cell subsets are determined from aliquots of the cell culture. Cells were stained with APC anti-Thy1.1, PerCP anti-CD34, PECy7 anti CD45RA, FITC anti CD38, and PE anti-CD133 for determination of CD34^+Thy1.1^+, CD34^+CD45RA^−, CD34^+CD38^−, CD133^+CD38^− and CD34^+CD133^+ cells. Antibodies to CD34, CD38, Thy1.1 and CD45RA were purchased from Becton Dickinson and antibodies to CD133 were purchased Miltenyi Biotec. FACS analysis results of these subsets are given as percentage of the total population. The absolute number of each population of cells in the culture is calculated from the total number of cells multiplied by the percentage of each population. Starting with CB CD34+ cell, after five weeks the total cell number in the cultures increased on average greater than 2-fold in the 4-(2-(2-(benzo[b]thiophen-3-yl)-9-isopropyl-9H-purin-6-ylamino)ethyl)phenol (compound 1, table 1; example 1) 1 micromolar treated cells compared to control cultures. More importantly, >50% of 4-(2-(2-(benzo[b]thiophen-3-yl)-9-isopropyl-9H-purin-6-ylamino)ethyl)phenol (compound 1, table 1; example 1) cultured cells were CD34^+ compared to <10% of vehicle cultured cells resulting in a greater than 10-fold expansion of CD34^+ cells compared to control and a greater than 10.000-fold expansion compared to input cells. In addition, the presence of 1 micromolar 4-(2-(2-(benzo[b]thiophen-3-yl)-9-isopropyl-9H-purin-6-ylamino)ethyl)phenol (compound 1, table 1; example 1) increased both the percentage and total numbers of the CD34^+ subpopulations, CD34^+CD45RA^−, CD34^+CD38^−, CD133^+CD38^−, and CD34^+CD133^+ resulting in a net expansion of greater than 30-fold for each subset.

mPB-derived CD34+ cells = experiment: Genome-wide transcriptional profiling; conditions: 24 hours
Text: The two genes that were the most highly repressed by treatment with Example 1 (cytochrome P450 1B1 [CYP1B1] and the aryl hydrocarbon receptor repressor [AHRR]) are transcriptionally regulated by the aryl hydrocarbon receptor (AHR). Therefore, compounds of the invention could be acting as an antagonist of AHR signaling.

down-regulation of 5 genes (most repressed: CYP1B1, AHRR) (mPB-derived CD34+ cells; 1 μM): > 70%
Compound: CC(C)n1cnc2c(NCCc3ccc(O)cc3)nc(-c3csc4ccccc34)nc21 [Example 1, 4-(2-(2-(benzo[b]thiophen-3-yl)-9-isopropyl-9H-purin-6-ylamino)ethyl)phenol]
increase in colony forming units compared to control ([1]; 1 micromolar, 1x10^3 CB CD34+ cells, 5 week culture): greater than 10 fold
increase in the number of colony forming cells compared to vehicle ([1]; 1 micromolar, after 21 days of culture of mPB CD34+ cells): greater than 10 fold
mixed granulocyte/erythrocyte/monocyte/macrophage colonies ([1]; not observed in colonies derived from untreated cultures): give rise mixed granulocyte/erythrocyte/monocyte/macrophage colonies
increase in erythrocyte colonies ([1]; treated cells vs untreated): greater than 10 fold
increase in granulocyte/macrophage colonies ([1]; treated cells vs untreated): greater than 10 fold
increase in macrophage colonies ([1]; treated cells vs untreated): greater than 10 fold
net expansion of each subset CD34+CD45RA-, CD34+CD38-, CD133+CD38-, CD34+CD133+ (CB CD34+ cells; 1 micromolar): greater than 30 fold
increase of total cell number compared to control cultures (CB CD34+ cells; 1 micromolar, after five weeks): greater than 2 fold
expansion of CD34+ cells compared to control (CB CD34+ cells; five weeks): greater than 10 fold
expansion of CD34+ cells compared to input cells (CB CD34+ cells; five weeks): greater than 10.000 fold
percentage of cultured cells that were CD34+ (CB CD34+ cells; five weeks, vehicle <10%): > 50%
up-regulation of 5 genes of >50,000 probe sets (mPB-derived CD34+ cells): greater than 3 fold
